Experimental data from publication PMC11576293, “New series of 4,6-diaryl pyrimidines: facile synthesis and antiproliferative activity as dual EGFR/VEGFR-2 inhibitors” (Frontiers in Chemistry, 2024).

Legend:
[1] = tested on: COLO 205; assay: NCI-60 single-dose screen; type: cell-based; conditions: Homo sapiens, single dose 10 µM, '-' = no inhibition, read-out: % Growth Inhibition
In short: (§1)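 The NCI Developmental Therapeutics Program exposed each of 60 cancer cell lines, drawn from leukemia, lung, colon, CNS, melanoma, ovarian, renal, prostate and breast origins, to one concentration of compound (10 μM).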

[2] = tested on: DU-145; assay: NCI-60 single-dose screen; type: cell-based; conditions: Homo sapiens, single dose 10 µM, '-' = no inhibition, read-out: % Growth Inhibition
In short: as §1

[3] = tested on: HL-60(TB); assay: NCI-60 single-dose screen; type: cell-based; conditions: Homo sapiens, single dose 10 µM, '-' = no inhibition, read-out: % Growth Inhibition
[4] = tested on: K-562; assay: NCI-60 single-dose screen; type: cell-based; conditions: Homo sapiens, K562, single dose 10 µM, '-' = no inhibition, read-out: % Growth Inhibition
In short: as §1

[5] = tested on: LOX IMVI; assay: NCI-60 single-dose screen; type: cell-based; conditions: Homo sapiens, single dose 10 µM, '-' = no inhibition, read-out: % Growth Inhibition
In short: as §1

[6] = tested on: MDA-MB231/ATCC; assay: NCI-60 single-dose screen; type: cell-based; conditions: Homo sapiens, MDA-MB-231, single dose 10 µM, '-' = no inhibition, read-out: % Growth Inhibition
In short: as §1

[7] = tested on: NCI-H23; assay: NCI-60 single-dose screen; type: cell-based; conditions: Homo sapiens, single dose 10 µM, '-' = no inhibition, read-out: % Growth Inhibition
In short: as §1

[8] = tested on: NCI-H322M; assay: NCI-60 single-dose screen; type: cell-based; conditions: Homo sapiens, single dose 10 µM, '-' = no inhibition, read-out: % Growth Inhibition
In short: as §1

[9] = tested on: OVCAR-4; assay: NCI-60 single-dose screen; type: cell-based; conditions: Homo sapiens, single dose 10 µM, '-' = no inhibition, read-out: % Growth Inhibition
In short: as §1

[10] = tested on: OVCAR-8; assay: NCI-60 single-dose screen; type: cell-based; conditions: Homo sapiens, single dose 10 µM, '-' = no inhibition, read-out: % Growth Inhibition
In short: as §1

[11] = tested on: SR; assay: NCI-60 single-dose screen; type: cell-based; conditions: Homo sapiens, single dose 10 µM, '-' = no inhibition, read-out: % Growth Inhibition
In short: as §1

[12] = tested on: A-549; assay: Antiproliferative assay (MTT); type: cell-based; conditions: Homo sapiens, A549, A-549 (lung), read-out: Antiproliferative activity IC50 ± SEM, A-549
Source text: (§2) The MTT test was employed for this investigation ([Hisham et al., 2022]; [El-Sherief et al., 2019]; [Ramadan et al., 2020]). Table 2 presents the four cancer cell lines’ median inhibitory concentration (IC50) and GI50 (average IC50) values.
(§3) The MTT test was employed for this investigation ([Hisham et al., 2022]; [El-Sherief et al., 2019]; [Ramadan et al., 2020]). The IC50 values were derived from dose-response tests. The reported data are derived from at least two independent studies, each comprising three replicates per concentration. See Supplementary Material A1 for more details.
(§4) (in 0.1% DMSO) were added (in 200 μL medium to yield a final concentration of 0.1% v/v) to the wells of plates. A single compound was designated with four wells followed by incubation of plates for 96h at 37°C. After incubation, medium was removed completely from the plates followed by addition of MTT (0.4 mg/mL in medium) to each well and subsequent incubation of plates for 3h. MTT (along with the medium) was removed and DMSO (150μL) was added to each well of the culture plates, followed by vertexing and subsequent measurement of absorbance (at 540 nm) using microplate reader. The data are shown as percentage inhibition of proliferation in comparison with controls containing 0.1% DMSO.
(§5) 4.2.1.2. Assay for antiproliferative effect […]
(§6) (10%) and 1 µg/mL each of aprotinin, leupeptin and pepstatin for 120 min. The purification was performed either at 4 °C or on ice. To record autophosphorylation level, EGFR kinase assay was carried out on the basis of DELFIA/Time-Resolved Fluorometry. The compounds were first
(§7) (1 picture or pasted object on this page, not shown here)

[13] = tested on: HT-29; assay: Antiproliferative assay (MTT); type: cell-based; conditions: Homo sapiens, HT-29 (colon), read-out: Antiproliferative activity IC50 ± SEM, HT-29
Source text: as §2, §3, §4, §5, §6, §7

[14] = tested on: MCF-7; assay: Antiproliferative assay (MTT); type: cell-based; conditions: Homo sapiens, MCF7, MCF-7 (breast), read-out: Antiproliferative activity IC50 ± SEM, MCF-7
Source text: as §2, §3, §4, §5, §6, §7

[15] = tested on: Panc-1; assay: Antiproliferative assay (MTT); type: cell-based; conditions: Homo sapiens, Panc-1 (pancreatic), read-out: Antiproliferative activity IC50 ± SEM, Panc-1
Source text: as §2, §3, §4, §5, §6, §7

[16] = tested on: four cancer cell lines (A-549, MCF-7, Panc-1, HT-29); assay: Antiproliferative assay, average over four cancer cell lines; type: cell-based; conditions: Homo sapiens; average of the four cancer cell lines; read-out: Average IC50 (GI50)
Source text: Table 2 presents the four cancer cell lines’ median inhibitory concentration (IC50) and GI50 (average IC50) values.
The IC50 values were derived from dose-response tests. The reported data are derived from at least two independent studies, each comprising three replicates per concentration. See Supplementary Material A1 for more details.

| SMILES | inhibition at 10 µM [1] | inhibition at 10 µM [2] | inhibition at 10 µM [3] | inhibition at 10 µM [4] | inhibition at 10 µM [5] | inhibition at 10 µM [6] | inhibition at 10 µM [7] | inhibition at 10 µM [8] | inhibition at 10 µM [9] | inhibition at 10 µM [10] | inhibition at 10 µM [11] | IC50 [12] | IC50 [13] | IC50 [14] | IC50 [15] | IC50 [16] | melting point |
| --- | --- | --- | --- | --- | --- | --- | --- | --- | --- | --- | --- | --- | --- | --- | --- | --- | --- |
| COc1ccc(-c2cc(-c3ccc(Cl)cc3)nc(SC)n2)cc1 [Compound 9, 4-(4-Chlorophenyl)-6-(4-methoxyphenyl)-2-(methylthio)pyrimidine] | 0.19% | 5.68% | 7.42% | 18.6% | 12.2% | 20.4% | 9.87% | 14.3% | 4.46% | 11% | 12.7% | 60 ± 5 nM | 62 ± 6 nM | 65 ± 6 nM | 62 ± 6 nM | 62 nM | 220 to 221 °C |
| CCSc1nc(-c2ccc(Cl)cc2)cc(-c2ccc(OC)cc2)n1 [Compound 10, 4-(4-Chlorophenyl)-2-(ethylthio)-6-(4-methoxyphenyl)pyrimidine] | < 0% | < 0% | 6.15% | 11.5% | < 0% | < 0% | 0.32% | < 0% | 12.9% | < 0% | 19.4% | 75 ± 7 nM | 74 ± 7 nM | 79 ± 7 nM | 76 ± 7 nM | 76 nM | 230 to 231 °C |
| CCCSc1nc(-c2ccc(Cl)cc2)cc(-c2ccc(OC)cc2)n1 [Compound 11, 4-(4-Chlorophenyl)-6-(4-methoxyphenyl)-2-(propylthio)pyrimidine] | < 0% | 0.44% | 13.5% | 6.55% | < 0% | < 0% | < 0% | < 0% | < 0% | 2.49% | 14.6% | 52 ± 5 nM | 53 ± 5 nM | 55 ± 5 nM | 54 ± 5 nM | 54 nM | 228 to 230 °C |
| COc1ccc(-c2cc(-c3ccc(Cl)cc3)nc(SC(C)C)n2)cc1 [Compound 12, 4-(4-Chlorophenyl)-2-(isopropylthio)-6-(4-methoxyphenyl)pyrimidine] | < 0% | 14.7% | 32.6% | 30.9% | 13.6% | 4.87% | 10.7% | 4.22% | 11.8% | 11.3% | 47.1% | 35 ± 3 nM | 36 ± 3 nM | 37 ± 3 nM | 36 ± 3 nM | 36 nM | 198 to 201 °C |
| C=CCSc1nc(-c2ccc(Cl)cc2)cc(-c2ccc(OC)cc2)n1 [Compound 13, 2-(Allylthio)-4-(4-chlorophenyl)-6-(4-methoxyphenyl)pyrimidine] | < 0% | 1.02% | 26.8% | 15.6% | 4.72% | < 0% | 3.36% | 0.59% | 12.1% | < 0% | 19.9% | 64 ± 6 nM | 64 ± 6 nM | 68 ± 6 nM | 66 ± 6 nM | 66 nM | 245 to 247 °C |
| COc1ccc(CSc2nc(-c3ccc(OC)cc3)cc(-c3cccc(OC)c3)n2)cc1 [Compound 22, 2-(4-Methoxybenzylthio)-6-(3-methoxyphenyl)-4-(4-methoxyphenyl)pyrimidine] | – | – | – | – | – | – | – | – | – | – | – | 21 ± 2 nM | 23 ± 2 nM | 23 ± 2 nM | 22 ± 2 nM | 22 nM | – |
